Test results published in patent US20100093722A1, “HETEROARYL AND PHENYL SUBSTITUTED THIENO[2,3-d]PYRIMIDINES AND THEIR USE AS ADENOSINE A2a RECEPTOR ANTAGONISTS” (priority 2008, published 2010).

Legend:
[1] = biological target: T1, human adenosine A2a receptor (Homo sapiens, UniProt P29274); assay: Adenosine A2a Receptor Functional Assay (A2AGAL2); assay type: cell-based; settings: CHO-K1 cells overexpressing human A2a, cAMP inducible beta-galactosidase reporter, 15 nM NECA agonist challenge
T1 construct: expressed in transfected cells; host or cells: CHO-K1
T1 sequence (P29274 whole entry): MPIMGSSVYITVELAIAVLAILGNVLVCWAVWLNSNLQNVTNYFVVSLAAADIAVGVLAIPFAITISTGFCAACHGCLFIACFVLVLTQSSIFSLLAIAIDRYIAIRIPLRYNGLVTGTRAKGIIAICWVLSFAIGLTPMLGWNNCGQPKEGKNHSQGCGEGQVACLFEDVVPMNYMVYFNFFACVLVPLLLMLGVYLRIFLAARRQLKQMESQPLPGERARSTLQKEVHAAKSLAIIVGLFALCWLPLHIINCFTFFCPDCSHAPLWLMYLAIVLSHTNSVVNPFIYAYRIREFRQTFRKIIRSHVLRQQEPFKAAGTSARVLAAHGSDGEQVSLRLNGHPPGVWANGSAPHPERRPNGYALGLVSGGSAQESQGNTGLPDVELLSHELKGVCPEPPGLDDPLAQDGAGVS
Procedure: Adenosine A2a Receptor Functional Assay (A2AGAL2)
To initiate the functional assay, cryopreserved CHO-K1 cells overexpressing the human adenosine A2a receptor and containing a cAMP inducible beta-galactosidase reporter gene were thawed, centrifuged, DMSO containing media removed, and then seeded with fresh culture media into clear 384-well tissue culture treated plates (BD #353961) at a concentration of 10K cells/well. Prior to assay, these plates were cultured for two days at 37° C., 5% CO2, 90% Rh. On the day of the functional assay, culture media was removed and replaced with 45 uL assay medium (Hams/F-12 Modified (Mediatech #10-080CV) supplemented w/0.1% BSA). Test compounds were diluted and 11 point curves created at a 1000× concentration in 100% DMSO. Immediately after addition of assay media to the cell plates, 50 nL of the appropriate test compound antagonist or agonist control curves were added to cell plates using a Cartesian Hummingbird. Compound curves were allowed to incubate at room temperature on cell plates for approximately 15 minutes before addition of a 15 nM NECA (Sigma E2387) agonist challenge (5 uL volume). A control curve of NECA, a DMSO/Media control, and a single dose of Forskolin (Sigma F3917) were also included on each plate. After additions, cell plates were allowed to incubate at 37° C., 5% CO2, 90% Rh for 5.5-6 hours. After incubation, media was removed, and cell plates were washed 1× 50 uL with DPBS w/o Ca & Mg (Mediatech 21-031-CV). Into dry wells, 20 uL of 1× Reporter Lysis Buffer (Promega E3971 (diluted in dH2O from 5× stock)) was added to each well and plates frozen at −20° C. overnight. For β-galactosidase enzyme calorimetric assay, plates were thawed out at room temperature and 20 μL 2× assay buffer (Promega) was added to each well. Color was allowed to develop at 37° C., 5% CO2, 90% Rh for 1-1.5 h or until reasonable signal appeared. The calorimetric reaction was stopped with the addition of 60 μL/well 1M sodium carbonate. Plates were counted at 405 nm on a SpectraMax Microplate Reader (Molecular Devices). Data was analyzed in Microsoft Excel and IC/EC50 curves were fit using a standardized macro.

[2] = biological target: T2, human A2a adenosine receptor (Homo sapiens, UniProt P29274); assay: Ligand Binding Assay for Adenosine A2a Receptor (A2A-B); settings: plasma membrane of HEK293 cells containing human A2a receptor, radioligand [3H]CGS21680
T2 construct: purchased PerkinElmer RB-HA2a; host or cells: HEK293 plasma membrane
T2 sequence (P29274 whole entry): as above
Procedure: Ligand Binding Assay for Adenosine A2a Receptor
Ligand binding assay of adenosine A2a receptor was performed using plasma membrane of HEK293 cells containing human A2a adenosine receptor (PerkinElmer, RB-HA2a) and radioligand [^3H]CGS21680 (PerkinElmer, NET1021). Assay was set up in 96-well polypropylene plate in total volume of 200 μL by sequentially adding 20 μL 1:20 diluted membrane, 130 μL assay buffer (50 mM Tris.HCl, pH 7.4 10 mM MgCl2, 1 mM EDTA) containing [^3H] CGS21680, 50 μL diluted compound (4×) or vehicle control in assay buffer. Nonspecific binding was determined by […] NECA. Reaction was carried out at room temperature for 2 hours before filtering through 96-well GF/C filter plate pre-soaked in 50 mM Tris.HCl, pH 7.4 containing 0.3% polyethylenimine. Plates were then washed 5 times with cold 50 mM Tris.HCl, pH 7.4, dried and sealed at the bottom. Microscintillation fluid 30 μL was added to each well and the top sealed. Plates were counted on Packard Topcount for [^3H]. Data was analyzed in Microsoft Excel and GraphPad Prism programs. (Varani, K.; Gessi, S.; Dalpiaz, A.; Borea, P. A. British Journal of Pharmacology, 1996, 117, 1693)

[3] = biological target: T3, human adenosine A1 receptor (Homo sapiens, UniProt P30542); assay: Adenosine A1 Receptor Functional Assay (A1GAL2); assay type: cell-based; settings: CHO-K1 cells overexpressing human A1, cAMP inducible beta-galactosidase reporter, 4 nM r-PIA/1 uM Forskolin challenge
T3 construct: expressed in transfected cells; host or cells: CHO-K1
T3 sequence (P30542 1-326): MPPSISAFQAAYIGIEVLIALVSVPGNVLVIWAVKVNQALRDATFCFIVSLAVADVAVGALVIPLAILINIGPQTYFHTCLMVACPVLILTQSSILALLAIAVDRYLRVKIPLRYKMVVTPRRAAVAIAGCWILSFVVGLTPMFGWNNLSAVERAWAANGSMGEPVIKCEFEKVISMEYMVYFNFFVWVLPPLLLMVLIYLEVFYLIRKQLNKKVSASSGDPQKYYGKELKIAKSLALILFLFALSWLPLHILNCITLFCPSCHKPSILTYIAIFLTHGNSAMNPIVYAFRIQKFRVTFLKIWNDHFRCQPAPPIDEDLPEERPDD
Procedure: Adenosine A1 Receptor Functional Assay (A1GAL2)
To initiate the functional assay, cryopreserved CHO-K1 cells overexpressing the human adenosine A1 receptor and containing a cAMP inducible beta-galactosidase reporter gene were thawed, centrifuged, DMSO containing media removed, and then seeded with fresh culture media into clear 384-well tissue culture treated plates (BD #353961) at a concentration of 10K cells/well. Prior to assay, these plates were cultured for two days at 37+ C., 5% CO2, 90% Rh. On the day of the functional assay, culture media was removed and replaced with 45 uL assay medium (Hams/F-12 Modified (Mediatech #10-080CV) supplemented w/0.1% BSA). Test compounds were diluted and 11 point curves created at a 1000× concentration in 100% DMSO. Immediately after addition of assay media to the cell plates, 50 nL of the appropriate test compound antagonist or agonist control curves were added to cell plates using a Cartesian Hummingbird. Compound curves were allowed to incubate at room temperature on cell plates for approximately 15 minutes before addition of a 4 nM r-PIA (Sigma P4532)/1 uM Forskolin (Sigma F3917) agonist challenge (5 uL volume). A control curve of r-PIA in 1 uM Forskolin, a DMSO/Media control, and a single dose of Forskolin were also included on each plate. After additions, cell plates were allowed to incubate at 37° C., 5% CO2, 90% Rh for 5.5-6 hours. After incubation, media was removed, and cell plates were washed 1× 50 uL with DPBS w/o Ca & Mg (Mediatech 21-031-CV). Into dry wells, 20 uL of 1× Reporter Lysis Buffer (Promega E3971 (diluted in dH2O from 5× stock)) was added to each well and plates frozen at −20° C. overnight. For β-galactosidase enzyme calorimetric assay, plates were thawed out at room temperature and 20 μL 2× assay buffer (Promega) was added to each well. Color was allowed to develop at 37° C., 5% CO2, 90% Rh for 1-1.5 h or until reasonable signal appeared. The calorimetric reaction was stopped with the addition of 60 μL/well 1M sodium carbonate. Plates were counted at 405 nm on a SpectraMax Microplate Reader (Molecular Devices). Data was analyzed in Microsoft Excel and IC/EC50 curves were fit using a standardized macro.

| Structure (SMILES) | Ki [1] | Ki [2] | Ki [3] |
| --- | --- | --- | --- |
| COc1ncccc1C(O)c1cc2c(N)nc(-c3cccc(C#N)c3)nc2s1 (stereo not drawn) [Example 9, 3-{4-Amino-6-[hydroxy-(2-methoxy-pyridin-3-yl)-methyl]-thieno[2,3-d]pyrimidin-2-yl}-benzonitrile] | 9.25 nM | 12.1 nM | 168 nM |
| N#Cc1cccc(-c2nc(N)c3cc(C(O)c4ccncc4Cl)sc3n2)c1 (stereo not drawn) [Example 21, 3-{4-Amino-6-[(3-chloro-pyridin-4-yl)-hydroxy-methyl]-thieno[2,3-d]pyrimidin-2-yl}-benzonitrile] | 12.3 nM | 43.8 nM | 412 nM |
| N#Cc1cccc(-c2nc(N)c3cc(C(O)c4cccnc4Cl)sc3n2)c1 (stereo not drawn) [Example 30, 3-{4-Amino-6-[(2-chloro-pyridin-3-yl)-hydroxy-methyl]-thieno[2,3-d]pyrimidin-2-yl}-benzonitrile] | 16.3 nM | 61.9 nM | 347 nM |
| N#Cc1cccc(-c2nc(N)c3cc(Cc4cccnc4Cl)sc3n2)c1 [Example 35, 3-[4-Amino-6-(2-chloro-pyridin-3-ylmethyl)-thieno[2,3-d]pyrimidin-2-yl]-benzonitrile] | 11.4 nM | 28.4 nM | 713 nM |

The next lines start with the values.

| Ki [1] | Ki [2] | Ki [3] | Structure (SMILES) |
| --- | --- | --- | --- |
| 1.41 nM | 57.8 nM | 30 nM | N#Cc1cccc(-c2nc(N)c3cc(Cc4ncccc4F)sc3n2)c1 [Example 38, 3-[4-Amino-6-(3-fluoro-pyridin-2-ylmethyl)-thieno[2,3-d]pyrimidin-2-yl]-benzonitrile] |
| 1.24 nM | 20.2 nM | 26.1 nM | COc1cccnc1Cc1cc2c(N)nc(-c3cccc(C#N)c3)nc2s1 [Example 34, 3-[4-Amino-6-(3-methoxy-pyridin-2-ylmethyl)-thieno[2,3-d]pyrimidin-2-yl]-benzonitrile] |
| 14.4 nM | 34.2 nM | 101 nM | COc1ncccc1Cc1cc2c(N)nc(-c3cccc(C#N)c3)nc2s1 [Example 10, 3-[4-Amino-6-(2-methoxy-pyridin-3-ylmethyl)-thieno[2,3-d]pyrimidin-2-yl]-benzonitrile] |
| 4.44 nM | 6.66 nM | 84.2 nM | COc1cccnc1C(O)c1cc2c(N)nc(-c3cccc(C#N)c3)nc2s1 (stereo not drawn) [Example 33, 3-{4-Amino-6-[hydroxy-(3-methoxy-pyridin-2-yl)-methyl]-thieno[2,3-d]pyrimidin-2-yl}-benzonitrile] |
